Results taken from US12428403B2, “N-(heterocyclyl and heterocyclylalkyl)-3-benzylpyridin-2-amine derivatives as SSTR4 agonists” (Takeda Pharmaceutical Company Limited, priority 2020, dated 2025).

What was measured:
SSTR4 [1] = biological target: T1, SSTR4 (Homo sapiens, UniProt P31391); test: cell-based
SSTR1 = SSTR1 (Homo sapiens, UniProt P30872); test: biochemical;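 note: competitive binding to membranes of CHO-K1 cells overexpressing SSTR1, incubated 60 min at room temperature, radioactivity read by scintillation counting after filtration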
Description: SSTR1 I-125 Somatostatin Competition Binding Assay for Selectivity Versus SSTR1
Membranes from CHO-K1 cells overexpressing SSTR1 are purchased from Perkin Elmer (catalog number ES-520-M400UA). Test compounds are suspended in DMSO and then diluted in assay buffer (25 mM HEPES pH 7.4, 10 mM MgCl2, 1 mM CaCl2, 0.5% BSA) plus 0.4 nM I-125 labeled somatostatin (Perkin Elmer catalog number NEX389). […] Then 10 μg of SSTR1 membranes in 50 μL assay buffer are added per well. The plate is incubated for 60 minutes at room temperature. […] The contents of the assay plate are transferred to filters with a TomTech harvester and washed 5 times with 20 mM HEPES, 100 mM NaCl. […] The scintillator sheets are melted to the filters using a heat block. The filters are then read in a MicroBeta scintillation counter. Binding Ki curves are generated using Activity Base for Screening Data Management and the results are reported as pIC50.

SSTR4 [2] = biological target: T1, SSTR4; test: SSTR4 I-125 somatostatin competition binding assay (CHO-K1 membranes); set-up: host or cells: CHO-K1; details: competition with I-125 labeled somatostatin, membranes from CHO-K1 overexpressing SSTR4; read-out: SSTR4 Binding pIC50 (converted)
From the text: SSTR4I-125 Somatostatin Competition Binding Assay
Membranes from CHO-K1 cells overexpressing SSTR4 are purchased from Perkin Elmer (catalog number ES-524-M400UA). […] The scintillator sheets are melted to filters using a heat block.
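Throughout, for EC50: CHO-K1 cells overexpressing SSTR4, reduction of forskolin-driven cAMP after 30 min compound exposure at room temperature, cAMP read by HTRF LANCE Ultra kit.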

Chain of SSTR1 (P30872 whole entry): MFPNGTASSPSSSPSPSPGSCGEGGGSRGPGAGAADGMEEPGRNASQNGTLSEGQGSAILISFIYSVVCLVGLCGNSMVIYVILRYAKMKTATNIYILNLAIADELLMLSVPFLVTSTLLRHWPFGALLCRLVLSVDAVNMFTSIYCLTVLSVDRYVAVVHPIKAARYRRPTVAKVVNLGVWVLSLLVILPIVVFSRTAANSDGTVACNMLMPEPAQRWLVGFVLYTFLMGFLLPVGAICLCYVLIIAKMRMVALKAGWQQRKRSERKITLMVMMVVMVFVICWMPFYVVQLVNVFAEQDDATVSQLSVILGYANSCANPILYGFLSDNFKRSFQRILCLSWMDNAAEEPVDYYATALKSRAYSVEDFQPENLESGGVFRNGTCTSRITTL
T1 sequence (P31391 whole entry): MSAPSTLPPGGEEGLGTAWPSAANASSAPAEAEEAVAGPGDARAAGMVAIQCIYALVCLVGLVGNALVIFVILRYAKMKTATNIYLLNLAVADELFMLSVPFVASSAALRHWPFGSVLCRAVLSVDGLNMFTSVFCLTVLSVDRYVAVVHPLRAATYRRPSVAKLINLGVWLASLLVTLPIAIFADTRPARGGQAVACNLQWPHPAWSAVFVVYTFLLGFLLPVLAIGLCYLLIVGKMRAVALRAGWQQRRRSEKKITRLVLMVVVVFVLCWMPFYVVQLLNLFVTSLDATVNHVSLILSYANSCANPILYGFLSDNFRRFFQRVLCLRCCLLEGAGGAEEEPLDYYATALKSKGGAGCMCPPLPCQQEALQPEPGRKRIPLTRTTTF

Row | SMILES | EC50 (SSTR4 [1]) | IC50 (SSTR1) | IC50 (SSTR4 [2])
1 | CNC(=O)c1cnc(NCCN2CCCC2)c(C(C)c2ccc(F)cc2)n1 (stereo not drawn) [Example 22, 6-(1-(4-fluorophenyl)ethyl)-N-methyl-5-((2-(pyrrolidin-1-yl)ethyl)amino)pyrazine-2-carboxamide] | 3.72 nM | 10500 nM | 77.6 nM
2 | CC(c1ccc(F)cc1)c1ncc(C(=O)N(C)C)nc1NCCN1CCCC1 (stereo not drawn) [Example 28] | 4.68 nM | 1660 nM | 389 nM
3 | CC(c1ccc(F)cc1)c1ncc(C(N)=O)nc1NCCN1CCCC1 (stereo not drawn) [Example 37, 5-(1-(4-fluorophenyl)ethyl)-6-((2-(pyrrolidin-1-yl)ethyl)amino)pyrazine-2-carboxamide] | 61.7 nM | 4570 nM | 490 nM
4 | Cc1nc(NCCN2CCCC2)c(C(C)c2ccc(F)cc2)nc1C(=O)NCCF (stereo not drawn) [Example 51, N-(2-fluoroethyl)-6-(1-(4-fluorophenyl)ethyl)-3-methyl-5-((2-(pyrrolidin-1-yl)ethyl)amino)pyrazine-2-carboxamide] | 3.09 nM | 81.3 nM | 18.2 nM
5 | COCCNC(=O)c1nc(C(C)c2ccc(F)cc2)c(NCCN2CCCC2)nc1C (stereo not drawn) [Example 52, 6-(1-(4-fluorophenyl)ethyl)-N-(2-methoxyethyl)-3-methyl-5-((2-(pyrrolidin-1-yl)ethyl)amino)pyrazine-2-carboxamide] | 1.86 nM | 1620 nM | 16.2 nM
6 | Cc1nc(NCCN2CCCC2)c(C(C)c2ccc(F)cc2)nc1C(=O)N1CCC(F)(F)C1 (stereo not drawn) [Example 60, (3,3-difluoropyrrolidin-1-yl)(6-(1-(4-fluorophenyl)ethyl)-3-methyl-5-((2-(pyrrolidin-1-yl)ethyl)amino)pyrazin-2-yl)methanone] | 4.9 nM | 1580 nM | 40.7 nM
7 | Cc1nc(NCCN2CCCC2)c(C(C)c2ccc(F)cc2)nc1C(=O)N[C@@H]1CCOC1 (stereo partly drawn) [Example 61, 6-(1-(4-fluorophenyl)ethyl)-3-methyl-5-((2-(pyrrolidin-1-yl)ethyl)amino)-N-((R)-tetrahydrofuran-3-yl)pyrazine-2-carboxamide] | 15.8 nM | 1510 nM | 20.4 nM
8 | Cc1nc(NCCN2CCCC2)c(C(C)c2ccc(F)cc2)nc1C(=O)NC1CC1 (stereo not drawn) [Example 62, N-cyclopropyl-6-(1-(4-fluorophenyl)ethyl)-3-methyl-5-((2-(pyrrolidin-1-yl)ethyl)amino)pyrazine-2-carboxamide] | 4.27 nM | 1410 nM | 14.5 nM
9 | Cc1nc(NCCN2CCCC2)c(C(C)c2ccc(F)cc2)nc1C(=O)N[C@H]1C[C@@H](F)C1 (stereo partly drawn) [Example 64, N-(cis-3-fluorocyclobutyl)-6-(1-(4-fluorophenyl)ethyl)-3-methyl-5-((2-(pyrrolidin-1-yl)ethyl)amino)pyrazine-2-carboxamide] | 13.8 nM | 1260 nM | 33.9 nM
10 | Cc1nc(NCCN2CCCC2)c(C(C)c2ccc(F)cc2)nc1C(=O)N(C)C1CC1 (stereo not drawn) [Example 65, N-cyclopropyl-6-(1-(4-fluorophenyl)ethyl)-N,3-dimethyl-5-((2-(pyrrolidin-1-yl)ethyl)amino)pyrazine-2-carboxamide] | 1.62 nM | 3390 nM | 17 nM
11 | Cc1nc(NCCN2CCCC2)c(C(C)c2ccc(F)cc2)nc1C(=O)N1CC[C@H](F)C1 (stereo partly drawn) [Example 66, (6-(1-(4-fluorophenyl)ethyl)-3-methyl-5-((2-(pyrrolidin-1-yl)ethyl)amino)pyrazin-2-yl)((S)-3-fluoropyrrolidin-1-yl)methanone] | 4.17 nM | 3470 nM | 36.3 nM
12 | Cc1nc(NCCN2CCCC2)c(C(C)c2ccc(F)cc2)nc1C(=O)N(C)C(C)C (stereo not drawn) [Example 67, 6-(1-(4-fluorophenyl)ethyl)-N-isopropyl-N,3-dimethyl-5-((2-(pyrrolidin-1-yl)ethyl)amino)pyrazine-2-carboxamide] | 1.7 nM | 3630 nM | 10 nM
13 | CO[C@H]1CCN(C(=O)c2nc(C(C)c3ccc(F)cc3)c(NCCN3CCCC3)nc2C)C1 (stereo partly drawn) [Example 68, (6-(1-(4-fluorophenyl)ethyl)-3-methyl-5-((2-(pyrrolidin-1-yl)ethyl)amino)pyrazin-2-yl)((S)-3-methoxypyrrolidin-1-yl)methanone] | 0.676 nM | 3550 nM | 31.6 nM
14 | Cc1nc(NCCN2CCCC2)c(C(C)c2ccc(F)cc2)nc1C(=O)N[C@H]1CCOC1 (stereo partly drawn) [Example 69, 6-(1-(4-fluorophenyl)ethyl)-3-methyl-5-((2-(pyrrolidin-1-yl)ethyl)amino)-N-((S)-tetrahydrofuran-3-yl)pyrazine-2-carboxamide] | 8.71 nM | 2400 nM | 135 nM
15 | CO[C@H]1C[C@H](NC(=O)c2nc(C(C)c3ccc(F)cc3)c(NCCN3CCCC3)nc2C)C1 (stereo partly drawn) [Example 71, 6-(1-(4-fluorophenyl)ethyl)-N-(trans-3-methoxycyclobutyl)-3-methyl-5-((2-(pyrrolidin-1-yl)ethyl)amino)pyrazine-2-carboxamide] | 4.27 nM | 2450 nM | 31.6 nM
16 | CO[C@@H]1CCN(C(=O)c2nc(C(C)c3ccc(F)cc3)c(NCCN3CCCC3)nc2C)C1 (stereo partly drawn) [Example 72, (6-(1-(4-fluorophenyl)ethyl)-3-methyl-5-((2-(pyrrolidin-1-yl)ethyl)amino)pyrazin-2-yl)((R)-3-methoxypyrrolidin-1-yl)methanone] | 3.39 nM | 4790 nM | 64.6 nM
17 | Cc1nc(NCCN2CCCC2)c(C(C)c2ccc(F)cc2)nc1C(=O)NC1CC(F)(F)C1 (stereo not drawn) [Example 73, N-(3,3-difluorocyclobutyl)-6-(1-(4-fluorophenyl)ethyl)-3-methyl-5-((2-(pyrrolidin-1-yl)ethyl)amino)pyrazine-2-carboxamide] | 9.77 nM | 1100 nM | 47.9 nM
18 | Cc1nc(NCCN2CCCC2)c(C(C)c2ccc(F)cc2)nc1C(=O)N1CC[C@@H](F)C1 (stereo partly drawn) [Example 74, (6-(1-(4-fluorophenyl)ethyl)-3-methyl-5-((2-(pyrrolidin-1-yl)ethyl)amino)pyrazin-2-yl)((R)-3-fluoropyrrolidin-1-yl)methanone] | 3.24 nM | 4370 nM | 63.1 nM
19 | Cc1nc(NCCN2CCC2)c(Cc2ccc(F)cc2)nc1C#N [Example 96, 5-((2-(azetidin-1-yl)ethyl)amino)-6-(4-fluorobenzyl)-3-methylpyrazine-2-carbonitrile] | 27.5 nM | 11000 nM | 61.7 nM

Next, values leading:

Row | EC50 (SSTR4 [1]) | IC50 (SSTR1) | IC50 (SSTR4 [2]) | SMILES
20 | 4.27 nM | 26900 nM | 41.7 nM | Cc1cccc(Cc2nc(C(=O)N(C)C)c(C)nc2NCCN2CCCC2)c1 [Example 39, N,N,3-trimethyl-6-(3-methylbenzyl)-5-((2-(pyrrolidin-1-yl)ethyl)amino)pyrazine-2-carboxamide]
21 | 1.17 nM | 8910 nM | 21.9 nM | CNC(=O)c1nc(Cc2cccc(C)c2)c(NCCN2CCCC2)nc1C [Example 40, N,3-dimethyl-6-(3-methylbenzyl)-5-((2-(pyrrolidin-1-yl)ethyl)amino)pyrazine-2-carboxamide]
22 | 2.09 nM | 13200 nM | 23.4 nM | Cc1cccc(Cc2nc(C(N)=O)c(C)nc2NCCN2CCCC2)c1 [Example 41, 3-methyl-6-(3-methylbenzyl)-5-((2-(pyrrolidin-1-yl)ethyl)amino)pyrazine-2-carboxamide]
23 | 12.6 nM | 10000 nM | 138 nM | Cc1nc(NCCN2CCCC2)c(Cc2ccc(F)cc2)nc1C(=O)N(C)C [Example 42, 6-(4-fluorobenzyl)-N,N,3-trimethyl-5-((2-(pyrrolidin-1-yl)ethyl)amino)pyrazine-2-carboxamide]
24 | 12.6 nM | 9770 nM | 39.8 nM | CNC(=O)c1nc(Cc2ccc(F)cc2)c(NCCN2CCCC2)nc1C [Example 43, 6-(4-fluorobenzyl)-N,3-dimethyl-5-((2-(pyrrolidin-1-yl)ethyl)amino)pyrazine-2-carboxamide]
25 | 4.79 nM | 11700 nM | 67.6 nM | CNC(=O)c1nc(Cc2ccc(F)cc2)c(NCCN2CCCC2)nc1C [Example 44, 6-(4-fluorobenzyl)-N,3-dimethyl-5-((2-(pyrrolidin-1-yl)ethyl)amino)pyrazine-2-carboxamide]
26 | 0.776 nM | 9550 nM | 11.7 nM | Cc1nc(NCCN2CCCC2)c(C(C)c2ccc(F)cc2)nc1C(=O)N(C)C (stereo not drawn) [Example 48, 6-(1-(4-fluorophenyl)ethyl)-N,N,3-trimethyl-5-((2-(pyrrolidin-1-yl)ethyl)amino)pyrazine-2-carboxamide]
27 | 0.977 nM | 2570 nM | 16.6 nM | CNC(=O)c1nc(C(C)c2ccc(F)cc2)c(NCCN2CCCC2)nc1C (stereo not drawn) [Example 49, 6-(1-(4-fluorophenyl)ethyl)-N,3-dimethyl-5-((2-(pyrrolidin-1-yl)ethyl)amino)pyrazine-2-carboxamide]
28 | 1.35 nM | 5370 nM | 18.2 nM | CCN(C)C(=O)c1nc(C(C)c2ccc(F)cc2)c(NCCN2CCCC2)nc1C (stereo not drawn) [Example 63, N-ethyl-6-(1-(4-fluorophenyl)ethyl)-N,3-dimethyl-5-((2-(pyrrolidin-1-yl)ethyl)amino)pyrazine-2-carboxamide]
29 | 12.6 nM | 28200 nM | 77.6 nM | Cc1nc(Cc2ccc(F)cc2)c(NCCN2CCC2)nc1C [Example 78, N-(2-(azetidin-1-yl)ethyl)-3-(4-fluorobenzyl)-5,6-dimethylpyrazin-2-amine]
30 | 5.01 nM | 3720 nM | 10.5 nM | Cc1cccc(Cc2ncc(C(C)C)nc2NCCN2CCC2)c1 [Example 87, N-(2-(azetidin-1-yl)ethyl)-6-isopropyl-3-(3-methylbenzyl)pyrazin-2-amine]
